# Data from US7399775B2, “β-amyloid protein production/secretion inhibitor” (Daiichi Pharmaceutical Co., Ltd., priority 2001, dated 2008).
row,SMILES,melting point
1,"O=C(CCCC(c1cc(F)ccc1F)S(=O)(=O)c1ccc(Cl)cc1)N1CCCC1 (stereo not shown) [Example 203, 5-[(4-Chlorophenyl)sulfonyl]-5-(2,5-difluorophenyl)-1-(1-pyrrolildinyl)-1-pentanone]",125 to 126 °C
2,"O=S(=O)(c1ccc(Cl)cc1)C1(c2nnnn2Cc2ccccc2)CCCCC1 [Example 195, 1-Benzyl-5-[1-(4-chlorobenzenesulfonyl)cyclohexyl]-1H-tetrazole]",154 to 155 °C
3,"O=C(OC(=C(c1cc(F)ccc1F)S(=O)(=O)c1ccc(Cl)cc1)c1ccccc1)c1ccccc1 [Example 9, 2-[(4-Chlorophenyl)sulfonyl]-2-(2,5-difluorophenyl)-1-phenylethenyl benzoate]",224.5 to 227 °C
4,"CC(CCCO)C(c1cc(F)ccc1F)S(=O)(=O)c1ccc(Cl)cc1 (stereo not shown) [Example 39, 5-[(4-Chlorophenyl)sulfonyl]-5-(2,5-difluorophenyl)-4-methyl-1-pentanol]",84 to 86 °C
5,"CS(=O)(=O)CCCCC(c1cc(Cl)ccc1F)S(=O)(=O)c1ccc(Cl)cc1 (stereo not shown) [Example 79, 4-Chloro-2-[1-(4-chlorophenylsulfonyl)-5-(methylsulfonyl)pentyl]-1-fluorobenzene]",116 to 117 °C
6,"CS(=O)(=O)CCCCC(c1cncs1)S(=O)(=O)c1ccc(Cl)cc1 (stereo not shown) [Example 114, 5-[1-[(4-Chlorophenyl)sulfonyl]-5-(methylsulfonyl)pentyl]thiazole]",95 to 96 °C
7,"CCCC(=O)C(c1cc(F)ccc1F)S(=O)(=O)c1ccc(Cl)cc1 (stereo not shown) [Example 7, 1-[(4-Chlorophenyl)sulfonyl]-1-(2,5-difluorophenyl)-2-pentanone]",85.5 to 86 °C
8,"CS(=O)(=O)NCCC(c1cc(F)ccc1F)S(=O)(=O)c1ccc(Cl)cc1 (stereo not shown) [Example 245, N-[3-(4-Chlorophenylsulfonyl)-3-(2,5-difluorophenyl)propyl]methanesulfonamide]",131 to 134 °C
9,Cl.O=C(OCCC(c1cc(F)ccc1F)S(=O)(=O)c1ccc(Cl)cc1)N1CCN(Cc2ccccc2)CC1 (stereo not shown),184 to 189 °C
10,"O=C(OCCC(c1cc(F)ccc1F)S(=O)(=O)c1ccc(Cl)cc1)N1CCOCC1 (stereo not shown) [Example 211, 3-[(4-Chlorophenyl)sulfonyl]-3-(2,5-difluorophenyl)propyl=4-morpholinecarboxylate]",140 to 141 °C
11,"O=C(NCCCC(c1cc(F)ccc1F)S(=O)(=O)c1ccc(Cl)cc1)OCCI (stereo not shown) [Example 224, 2-Iodoethyl N-[4-[(4-chlorophenyl)sulfonyl]-4-(2,5-difluorophenyl)butyl]carbamate]",100 to 101 °C
12,"CC(C)(C)OC(=O)NCCCC(c1cc(F)ccc1F)S(=O)(=O)c1ccc(Cl)cc1 (stereo not shown) [Example 226, t-Butyl N-[4-[(4-chlorophenyl)sulfonyl]-4-(2,5-difluorophenyl)butyl]carbamate]",119 to 120 °C
13,"CCCC(O)C(c1cc(F)ccc1F)S(=O)(=O)c1ccc(Cl)cc1 (stereo not shown) [Example 11, 1-[(4-Chlorophenyl)sulfonyl]-1-(2,5-difluorophenyl)-2-pentanol]",76.5 to 78 °C
14,"O=S(=O)(c1ccc(Cl)cc1)C(c1ccncc1)C1CCCC1 (stereo not shown) [Example 121, 4-[(4-Chlorophenylsulfonyl)(cyclopentyl)methyl]pyridine]",133 to 135 °C
15,"O=S(=O)(c1ccc(Cl)cc1)C(Cc1ccncc1)c1cc(F)ccc1F (stereo not shown) [Example 220, 4-[2-[(4-Chlorophenyl)sulfonyl]-2-(2,5-difluorophenyl)ethyl]pyridine]",129 °C
16,Cl.O=S(=O)(c1ccc(Cl)cc1)C1(c2cc(F)ccc2F)CCNCC1,239 to 246 °C (dec.)
17,"COc1ccc(C(CCCCS(C)(=O)=O)S(=O)(=O)c2ccc(Cl)cc2)cc1 (stereo not shown) [Example 85, 1-[1-(4-Chlorophenylsulfonyl)-5-(methylsulfonyl)pentyl]-4-methoxybenzene]",136 to 138 °C
18,"O=S(=O)(c1ccc(Cl)cc1)C(c1ccncc1)C1CCOCC1 (stereo not shown) [Example 122, 4-[(4-Chlorophenylsulfonyl)(tetrahydropyran-4-yl)methyl]pyridine]",208 to 209 °C
19,"CCOC(=O)CC(c1cc(F)ccc1F)S(=O)(=O)c1ccc(Cl)cc1 (stereo not shown) [Example 25, Ethyl 3-[(4-chlorophenyl)sulfonyl]-3-(2,5-difluorophenyl)propionate]",99.5 to 100.5 °C
20,"CS(=O)(=O)CCCCC(c1ccncc1)S(=O)(=O)c1ccc(Cl)cc1 (stereo not shown) [Example 74, 4-[1-[(4-Chlorophenyl)sulfonyl]-5-(methylsulfonyl)pentyl]pyridine]",181 to 182 °C
21,"O=C(CCC(c1cc(F)ccc1F)S(=O)(=O)c1ccc(Cl)cc1)N1CCCC1 (stereo not shown) [Example 201, 4-[(4-Chlorophenyl)sulfonyl]-4-(2,5-difluorophenyl)-1-(1-pyrrolildinyl)-1-butanone]",134 to 135 °C
22,"CS(=O)(=O)CCCCC(c1cccc(F)c1)S(=O)(=O)c1ccc(Cl)cc1 (stereo not shown) [Example 54, 1-[1-[(4-Chlorophenyl)sulfonyl]-5-(methylsulfonyl)pentyl]-3-fluorobenzene]",116 to 117 °C
23,"CS(=O)(=O)CCCCC(Cc1ccccc1)S(=O)(=O)c1ccc(Cl)cc1 (stereo not shown) [Example 97, 4-[1-Benzyl-5-(methylsulfonyl)pentylsulfonyl]-1-chlorobenzene]",68 to 70 °C
24,"O=S(=O)(c1ccc(Cl)cc1)C(CCCCCBr)c1cc(F)ccc1F (stereo not shown) [Example 37, 2-[6-Bromo-1-[(4-chlorophenyl)sulfonyl]hexyl]-1,4-difluorobenzene]",77 to 79 °C
25,"CCOC(=O)NCCC(c1cc(F)ccc1F)S(=O)(=O)c1ccc(Cl)cc1 (stereo not shown) [Example 222, Ethyl N-[3-[(4-chlorophenyl)sulfonyl]-3-(2,5-difluorophenyl)propyl]carbamate]",121 to 122 °C

# The remaining lines, values ahead:
row,melting point,SMILES
1,70 to 72 °C,"Fc1ccc(F)c(C(Sc2ccc(Cl)cc2)c2ccncc2Cl)c1 (stereo not shown) [Example 341, 3-Chloro-4-[(4-chlorophenylthio)-(2,5-difluorophenyl)methyl]pyridine]"
2,119 to 124 °C,"O=C(c1cccnc1)N1CCC(c2cc(F)ccc2F)(S(=O)(=O)c2ccc(Cl)cc2)CC1 [Example 265, [4-[(4-Chlorophenyl)sulfonyl]-4-(2,5-difluorophenyl)piperidino](3-pyridyl)methanone]"
3,177 to 179 °C,"CN(C)CC(=O)NCc1ccc(C(c2cc(F)ccc2F)S(=O)(=O)c2ccc(Cl)cc2)nc1 (stereo not shown) [Example 359, N-[[6-[(4-Chlorophenylsulfonyl)(2,5-difluorophenyl)methyl]pyridin-3-yl]methyl]-2-dimethylaminoacetamide]"
4,122 to 124 °C,"O=S(=O)(c1ccc(Cl)cc1)C(CCc1ccc(Br)cc1)c1cc(F)ccc1F (stereo not shown) [Example 311, 2-[3-(4-Bromophenyl)-1-(4-chlorophenylsulfonyl)propyl]-1,4-difluorobenzene]"
5,108 to 109 °C,"O=S(=O)(c1ccc(Cl)cc1)C(C/C=C/CO)c1cc(F)ccc1F (stereo not shown) [Example 248, (E)-5-[(4-Chlorophenyl)sulfonyl]-5-(2,5-difluorophenyl)-2-penten-1-ol]"
6,101 to 106 °C,"CC(C)(C)OC(=O)N1CCC(c2cc(F)ccc2F)(S(=O)(=O)c2ccc(Cl)cc2)CC1 [Example 259, t-Butyl 4-[(4-chlorophenyl)sulfonyl]-4-(2,5-difluorophenyl)-1-piperidinecarboxylate]"
7,47 to 49 °C,"O=S(=O)(c1ccc(Cl)cc1)C(CCCC1CCCCC1)c1cc(F)ccc1F (stereo not shown) [Example 317, 2-[1-(4-Chlorophenylsulfonyl)-4-cyclohexylbutyl]-1,4-difluorobenzene]"
8,151 to 153 °C,"O=S(=O)(c1ccc(Cl)cc1)C(Cc1ccc(F)cc1)c1cc(F)ccc1F (stereo not shown) [Example 314, 2-[1-(4-Chlorophenylsulfonyl)-2-(4-fluorophenyl)ethyl]-1,4-difluorobenzene]"
9,68 to 69 °C,"CCCCCC(c1cc(F)ccc1F)S(=O)(=O)c1ccc(Cl)cc1 (stereo not shown) [Example 322, 2-[1-(4-Chlorophenylsulfonyl)hexyl]-1,4-difluorobenzene]"
10,56 to 58 °C,"CCC(C)CCC(c1cc(F)ccc1F)S(=O)(=O)c1ccc(Cl)cc1 (stereo not shown) [Example 326, 2-[1-(4-Chlorophenylsulfonyl)-4-methylhexyl]-1,4-difluorobenzene]"
11,124 to 132 °C,"O=S(=O)(c1ccc(Cl)cc1)C(CC[S+]([O-])CCO)c1cc(F)ccc1F (stereo not shown) [Example 254, 2-[3-[(4-Chlorophenyl)sulfonyl]-3-(2,5-difluorophenyl)propylsulfinyl]ethanol]"
12,90 to 93 °C,"O=S(=O)(c1ccc(Cl)cc1)C(Cc1ccco1)c1cc(F)ccc1F (stereo not shown) [Example 296, 2-[2-[(4-Chlorophenyl)sulfonyl]-2-(2,5-difluorophenyl)ethyl]furan]"
13,177 to 178 °C,"CN(C)S(=O)(=O)NCc1ccc(C(c2cc(F)ccc2F)S(=O)(=O)c2ccc(Cl)cc2)nc1 (stereo not shown) [Example 356, N-[[6-[(4-Chlorophenylsulfonyl)(2,5-difluorophenyl)methyl]pyridin-3-yl]methyl]-N′,N′-dimethylsulfamide]"
14,183 to 184 °C,"O=S(=O)(c1ccc(Cl)cc1)C(c1ccc[n+]([O-])c1)c1cc(F)ccc1F (stereo not shown) [Example 339, 3-[(4-Chlorophenylsulfonyl)-(2,5-difluorophenyl)methyl]pyridin-N-oxide]"
15,111 to 113 °C,"O=S(=O)(CCO)CCC(c1cc(F)ccc1F)S(=O)(=O)c1ccc(Cl)cc1 (stereo not shown) [Example 255, 2-[3-[(4-Chlorophenyl)sulfonyl]-3-(2,5-difluorophenyl)propylsulfonyl]ethanol]"
16,193 to 196 °C,"CC(C)(C)OC(=O)N1CCC(C(c2cc(F)ccc2F)S(=O)(=O)c2ccc(Cl)cc2)CC1 (stereo not shown) [Example 290, t-Butyl 4-[[(4-chlorophenyl)sulfonyl](2,5-difluorophenyl)methyl]-1-piperidinecarboxylate]"
17,82 to 84 °C,"Cc1ccc(CCC(c2cc(F)ccc2F)S(=O)(=O)c2ccc(Cl)cc2)cc1 (stereo not shown) [Example 307, 2-[1-(4-Chlorophenylsulfonyl)-3-(4-methylphenyl)propyl]-1,4-difluorobenzene]"
18,193 to 196 °C,"O=C(c1ccccn1)N1CCC(c2cc(F)ccc2F)(S(=O)(=O)c2ccc(Cl)cc2)CC1 [Example 266, [4-[(4-Chlorophenyl)sulfonyl]-4-(2,5-difluorophenyl)piperidino](2-pyridyl)methanone]"
